Assay results published in patent publication US10414760B2, “Cytochrome P450 inhibitors and uses thereof” (ANGION BIOMEDICA CORP., priority 2016, dated 2019).

How the values were obtained:
Format in all cases: biochemical
CYP17 = target: T1, CYP17 (Rattus norvegicus, UniProt P11715); test: CYP17 inhibition: 17α hydroxylase and C17,20 lyase activity in testis microsomes, ELISA detection; details: for IC50: which microsome assay (rat or dog testis) not specified
T1 construct: using rat and dog testis microsomes and ELISA kits from commercial vendors; from tissue; host or cells: rat testis microsomes
T1 sequence (P11715 1-507): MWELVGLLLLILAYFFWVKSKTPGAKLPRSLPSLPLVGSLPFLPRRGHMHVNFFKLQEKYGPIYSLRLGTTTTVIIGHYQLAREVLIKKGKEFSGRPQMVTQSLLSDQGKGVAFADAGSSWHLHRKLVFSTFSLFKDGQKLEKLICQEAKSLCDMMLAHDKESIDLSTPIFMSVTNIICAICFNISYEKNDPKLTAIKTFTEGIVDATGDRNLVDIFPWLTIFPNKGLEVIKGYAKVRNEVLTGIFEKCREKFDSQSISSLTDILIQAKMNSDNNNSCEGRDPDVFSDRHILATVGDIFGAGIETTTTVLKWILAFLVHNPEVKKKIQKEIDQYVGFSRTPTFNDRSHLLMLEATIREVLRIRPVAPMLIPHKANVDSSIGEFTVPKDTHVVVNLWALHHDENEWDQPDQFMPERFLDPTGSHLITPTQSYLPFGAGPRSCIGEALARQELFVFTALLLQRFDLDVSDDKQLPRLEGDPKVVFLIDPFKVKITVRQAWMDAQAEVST
Protocol: Serum Testosterone and PSA and Tumor Testosterone Analysis. Tumor tissue obtained from mice will be homogenized in phosphate buffer (pH 7.4, 0.1 M) and homogenates centrifuged at 2000 g for 20 min. Testosterone concentrations in the serum and in the clear tissue homogenate supernatant will be determined with the ELISA kit from R&D Systems (Catalog # KGR010). Serum PSA concentrations will be measured using a PSA ELISA kit with a serum dilution according to the manufacturers instructions. • c. Breast cancer. To test the efficacy of compounds embodied herein against breast cancer, nude mice carrying human breast cancer lines that are estrogen receptor and Aromatase positive will be used. Cells will be grown in vitro and 2 million will be inoculated in Matrigel (50:50 volume ratio of cells to Matrigel). Cells will be distributed by s.c. injection at the right and left flanks or at the orthotopic sitest in 6 to 8 week old athymic nude mice (BALB/c strain) or severe combined immunodeficient mice under anesthesia. Animals will be treated with compound for 4 weeks, at which point animals will be sacrificed and collect blood samples and tumor tissue for the determination of serum and tumor estrogen levels. Tumors will be excised and a portion will be fixed in formalin for subsequent histochemical and immuno-histochemical analysis. The remainder will be snap frozen in liquid nitrogen and stored at −80° C. • 12. CYP26 inhibition activity. […] The assay is run in a 100 μL reaction volume and stopped with an equal volume of methanol. […] CYP17 inhibition assay: In vitro assays for CYP17 17α-hydroxylase and C17,20-lyase activity, assays using rat and dog testis microsomes and ELISA kits from commercial vendors for the detection of formed products are employed. […] Assays are also used that determine the activity of 17α-hydroxylase activity using P4 as a substrate and detecting HOP4 as a product (using dog testis microsomes) and the activity of C17,20-lyase by using HOP4 as a substrate and AD as a product (rat testis microsomes). • 14.
CYP17 inhibition. In vitro assays for CYP17 17α hydroxylase and C17,20 lyase activity using rat and dog testis microsomes and ELISA kits from commercial vendors for the detection of formed products were employed. […] Assays were also used that determine the activity of 17α hydroxylase activity using P4 as a substrate and detecting HOP4 as a product (using dog testis microsomes) and the activity of C17,20 lyase by using HOP4 as a substrate and AD as a product (rat testis microsomes).

CYP19 = target: T2, CYP19 (Homo sapiens, UniProt P11511); test: CYP19 inhibition: commercially available recombinant enzyme and assay kit
T2 construct: purchased BD Gentest 456260
T2 sequence (P11511 1-503): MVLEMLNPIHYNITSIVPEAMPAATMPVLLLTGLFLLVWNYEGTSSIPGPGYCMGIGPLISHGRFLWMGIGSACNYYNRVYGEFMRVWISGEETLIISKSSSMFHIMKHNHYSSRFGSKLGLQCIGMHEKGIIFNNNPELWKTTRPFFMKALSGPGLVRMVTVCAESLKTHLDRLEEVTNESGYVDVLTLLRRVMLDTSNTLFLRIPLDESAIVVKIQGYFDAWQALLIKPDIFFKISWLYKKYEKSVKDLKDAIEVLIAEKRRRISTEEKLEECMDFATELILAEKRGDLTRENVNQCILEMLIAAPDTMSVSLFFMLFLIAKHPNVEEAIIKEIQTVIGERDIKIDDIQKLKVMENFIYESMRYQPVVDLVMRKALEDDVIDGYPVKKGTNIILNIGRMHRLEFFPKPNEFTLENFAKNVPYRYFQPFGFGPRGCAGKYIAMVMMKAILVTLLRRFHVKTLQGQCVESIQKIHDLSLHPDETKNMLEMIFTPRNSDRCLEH
Protocol: (§1) Serum Testosterone and PSA and Tumor Testosterone Analysis. Tumor tissue obtained from mice will be homogenized in phosphate buffer (pH 7.4, 0.1 M) and homogenates centrifuged at 2000 g for 20 min. Testosterone concentrations in the serum and in the clear tissue homogenate supernatant will be determined with the ELISA kit from R&D Systems (Catalog # KGR010). Serum PSA concentrations will be measured using a PSA ELISA kit with a serum dilution according to the manufacturers instructions. • c. Breast cancer. To test the efficacy of compounds embodied herein against breast cancer, nude mice carrying human breast cancer lines that are estrogen receptor and Aromatase positive will be used. Cells will be grown in vitro and 2 million will be inoculated in Matrigel (50:50 volume ratio of cells to Matrigel). Cells will be distributed by s.c. injection at the right and left flanks or at the orthotopic sitest in 6 to 8 week old athymic nude mice (BALB/c strain) or severe combined immunodeficient mice under anesthesia. Animals will be treated with compound for 4 weeks, at which point animals will be sacrificed and collect blood samples and tumor tissue for the determination of serum and tumor estrogen levels. Tumors will be excised and a portion will be fixed in formalin for subsequent histochemical and immuno-histochemical analysis. The remainder will be snap frozen in liquid nitrogen and stored at −80° C. • 12. CYP26 inhibition activity. A substrate depletion assay for ATRA metabolism in mouse microsomes is used. […] The assay is run in a 100 μL reaction volume and stopped with an equal volume of methanol. […] CYP17 inhibition assay: In vitro assays for CYP17 17α-hydroxylase and C17,20-lyase activity, assays using rat and dog testis microsomes and ELISA kits from commercial vendors for the detection of formed products are employed. Incubation of rat testis microsomes with the substrate progesterone (P4) results, through the CYP17 17α-hydroxylase and C17,20-lyase activities, in a marked production of androstenedione (AD) in a time and enzyme-concentration dependent manner. […] In another control, microsomes isolated from rat livers, which are known to express very little or no CYP17, are shown to be devoid of this activity. Assays are also used that determine the activity of 17α-hydroxylase activity using P4 as a substrate and detecting HOP4 as a product (using dog testis microsomes) and the activity of C17,20-lyase by using HOP4 as a substrate and AD as a product (rat testis microsomes). • 14. CYP19 inhibition assay: For in vitro assays of CYP19 aromatase activity, commercially available CYP19 enzyme preparations (e.g. BD Gentest Supersomes Catalog #456260) and assay kits (e.g. BD Gentest Catalog #459520) are employed according to the manufacturers instructions.
Selectivity for other P450 enzymes. To assess the selectivity of compounds embodied herein, activity was evaluated first against CYP3A4 and CYP19 using commercially available recombinant enzymes and assay kits. To calculate a selectivity factor, the IC50 for a particular P450 enzyme was divided by the IC50 in the CYP17 combination assay.

CYP26 = target: T3, CYP26 (Mus musculus, UniProt O55127); test: CYP26 inhibition: substrate depletion assay for ATRA metabolism in mouse microsomes
T3 construct: tissue Xenotech; host or cells: liver microsomes of ATRA-treated mice
T3 sequence (O55127 1-497): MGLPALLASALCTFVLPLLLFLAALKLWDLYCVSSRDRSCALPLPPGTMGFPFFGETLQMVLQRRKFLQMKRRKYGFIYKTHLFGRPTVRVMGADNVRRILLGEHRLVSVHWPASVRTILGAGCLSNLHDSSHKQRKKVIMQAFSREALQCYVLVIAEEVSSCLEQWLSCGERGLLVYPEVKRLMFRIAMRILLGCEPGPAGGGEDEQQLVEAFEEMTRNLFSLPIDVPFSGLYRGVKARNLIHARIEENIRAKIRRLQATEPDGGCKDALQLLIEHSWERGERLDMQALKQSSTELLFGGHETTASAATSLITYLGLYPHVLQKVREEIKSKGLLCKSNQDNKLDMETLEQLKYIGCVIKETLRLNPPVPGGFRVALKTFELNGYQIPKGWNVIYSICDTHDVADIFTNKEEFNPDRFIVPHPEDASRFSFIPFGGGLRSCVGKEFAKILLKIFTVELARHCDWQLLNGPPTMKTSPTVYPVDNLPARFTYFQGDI
Protocol: as §1
CYP26 inhibition. […] The assay was run in a 100 μL reaction volume and stopped with an equal volume of methanol. […] Other compounds of formula (I) are similarly potent, for example with an IC50 of 1.6 nM.

IC50 (CYP19) | IC50 (CYP17) | IC50 (CYP26) | SMILES | Inhibition of androstenedione (AD) production from progesterone (P4) (CYP17; rat testis microsomes, 17α hydroxylase and C17,20 lyase activities)
 |  |  | CC(=O)O[C@H]1CC[C@@]2(C)C(=CC[C@@H]3[C@@H]2CC[C@]2(C)C(c4cccnc4)=CC[C@@H]32)C1 [abiraterone acetate, reference compound] | completely inhibited
< 1 µM | < 5 µM |  | CCC(C(c1ccc2ncsc2c1)n1ccnc1)N(C)C (stereo not drawn) [Example 15, 1-(Benzo[d]thiazol-6-yl)-1-(1H-imidazol-1-yl)-N,N-dimethylbutan-2-amine] | 
< 1 µM | < 5 µM |  | CCC(C(c1ccc2nc(C(=N)OC)sc2c1)n1ccnc1)N(C)C (stereo not drawn) [Example 13, Methyl 6-(2-(dimethylamino)-1-(1H-imidazol-1-yl)butyl)benzo[d]thiazole-2-carbimidate] | 
< 1 µM | < 5 µM |  | CCC(C(c1ccc2nc(NC(C)=O)sc2c1)n1ccnc1)N(C)CC (stereo not drawn) [Example 9, N-(6-(2-(Ethyl(methyl)amino)-1-(1H-imidazol-1-yl)butyl)benzo[d]thiazol-2-yl)acetamide] | 
< 1 µM | < 5 µM |  | CCC(C(c1ccc2nc(C(N)=O)sc2c1)n1ccnc1)N(C)C (stereo not drawn) [Example 14, 6-(2-(Dimethylamino)-1-(1H-imidazol-1-yl)butyl)benzo[d]thiazole-2-carboxamide] | 
< 1 µM | < 5 µM |  | CCC(C(c1ccc2nc(N)sc2c1)n1ccnc1)N(C)CC (stereo not drawn) [Example 32, 6-(2-(Ethyl(methyl)amino)-1-(1H-imidazol-1-yl)butyl)benzo[d]thiazol-2-amine] | 
< 1 µM | < 5 µM |  | CCC(CC)C(c1ccc2nc(N)sc2c1)n1ccnc1 (stereo not drawn) [Example 27, 6-(2-Ethyl-1-(1H-imidazol-1-yl)butyl)benzo[d]thiazol-2-amine] | 
< 1 µM | < 5 µM |  | CCC(CC)C(c1ccc2nc(Br)sc2c1)n1ccnc1 (stereo not drawn) [Example 28, 2-bromo-6-(2-ethyl-1-(1H-imidazol-1-yl)butyl)benzo[d]thiazole] | 
< 1 µM | < 5 µM |  | CCC(C(c1ccc2nc(Cl)sc2c1)n1ccnc1)N(C)CC (stereo not drawn) [Example 10, 1-(2-Chlorobenzo[d]thiazol-6-yl)-N-ethyl-1-(1H-imidazol-1-yl)-N-methylbutan-2-amine] | 
< 1 µM | < 5 µM |  | CCC(C(c1ccc2nc(C(=O)OC)sc2c1)n1ccnc1)N(C)C (stereo not drawn) [Example 12, Methyl 6-(2-(dimethylamino)-1-(1H-imidazol-1-yl)butyl)benzo[d]thiazole-2-carboxylate] | 
< 1 µM | < 5 µM |  | CCC(C(c1ccc2nc(NC(N)=O)sc2c1)n1ccnc1)N(C)C (stereo not drawn) [Example 2, 1-(6-(2-(Dimethylamino)-1-(1H-imidazol-1-yl)butyl)benzo[d]thiazol-2-yl)urea] | 
 |  | < 1 µM | CCC(CC)C(c1ccc2nc(-c3ccc(C(=O)OC)cc3)sc2c1)n1ccnc1 (stereo not drawn) [Example 29, Methyl 4-(6-(2-ethyl-1-(1H-imidazol-1-yl)butyl)benzo[d]thiazol-2-yl)benzoate] | 
 |  | < 1 µM | CCC(C(c1ccc2nc(NC(=O)CCC(C)(C)C(=O)O)sc2c1)n1ccnc1)N(C)C (stereo not drawn) [Example 49, 5-((6-(-2-(Dimethylamino)-1-(1H-imidazol-1-yl)butyl)benzo[d]thiazol-2-yl)amino)-2,2-dimethyl-5-oxopentanoic acid] | 
< 1 µM | < 5 µM |  | CCC(C(c1ccc2nc(Br)sc2c1)n1ccnc1)N(C)CC (stereo not drawn) [Example 36, 1-(2-Bromobenzo[d]thiazol-6-yl)-N-ethyl-1-(1H-imidazol-1-yl)-N-methylbutan-2-amine] | 
 |  | < 1 µM | CCC(C(c1ccc2nc(-c3ccc(C(=O)OC)cc3)sc2c1)n1ccnc1)N(C)C (stereo not drawn) [Example 25, Methyl 4-(6-(2-(dimethylamino)-1-(1H-imidazol-1-yl)butyl)benzo[d]thiazol-2-yl)benzoate] | 
 |  | < 1 µM | CCC(C(c1ccc2nc(NCC(C)(C)C(=O)O)sc2c1)n1ccnc1)N(C)C (stereo not drawn) [Example 19, 3-((6-(2-(Dimethylamino)-1-(1H-imidazol-1-yl)butyl)benzo[d]thiazol-2-yl)amino)-2,2-dimethylpropanoic acid] | 
